From patent publication US9499550B2 (BRISTOL-MYERS SQUIBB COMPANY, priority 2012, dated 2016)

Experiments:
[1] = tested on: HCV genotype 1b (Con1) replicon in HUH-7 cells; assay: HCV replicon luciferase reporter assay, genotype 1b; type: cell-based; settings: Hepatitis C virus, Huh-7, 72 h, HCV genotype 1b replicon luciferase assay, 3 days incubation, range class, read-out: LE_1b (EC50, range)
How it was run: (§1)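 Replicon inhibition for both genotypes was measured as Renilla luciferase signal (EnduRen, 7.5 μM final, 2 h) after 3-day, 37° C exposure of replicon-bearing HUH-7 cells in 4% FCS DMEM, 0.5% DMSO. The 1b construct carries S1179I; the 1a H77 construct carries P1496L and S2204I. Twenty-point, 3-fold dilutions were fitted four-parametrically for EC50, and CC50 was taken from multiplexed Cell Titer-Blue.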

[2] = tested on: HCV genotype 1a (H77 strain) replicon in HUH-7 cells; assay: HCV replicon luciferase reporter assay, genotype 1a; type: cell-based; settings: Hepatitis C virus, Huh-7, 72 h, HCV genotype 1a replicon luciferase assay, 3 days incubation, range class, read-out: LE_1a (EC50, range)
How it was run: as §1

## CCN(C)c1cc2cc(OC)ccc2c(O[C@@H]2C[C@H]3C(=O)N[C@]4(C(=O)NS(=O)(=O)C5(CF)CC5)C[C@H]4/C=C\CC[C@H](C)C[C@@H](C)[C@H](NC(=O)OC(C)(C)C(F)(F)F)C(=O)N3C2)n1 [Compound 1136, 1,1,1-trifluoro-2-methylpropan-2-yl((2R,6S,7R,9S,13aS,14aR,16aS,Z)-2-((3-(ethyl(methyl)amino)-6-methoxyisoquinolin-1-yl)oxy)-14a-(((1-(fluoromethyl)cyclopropyl)sulfonyl)carbamoyl)-7,9-dimethyl-5,16-dioxo-1,2,3,5,6,7,8,9,10,11,13a,14,14a,15,16,16a-hexadecahydrocyclopropa[e]pyrrolo[1,2-a][1,4]diazacyclopentadecin-6-yl)carbamate]
[1]
  EC50: > 87.4 nM
[2]
  EC50: > 87.4 nM

## CCN(C)c1cc2cc(OC)ccc2c(O[C@@H]2C[C@H]3C(=O)N[C@]4(C(=O)NS(=O)(=O)C5(CF)CC5)C[C@H]4/C=C\CC[C@@H](C)C[C@@H](C)[C@H](NC(=O)OC(C)(C)C(F)(F)F)C(=O)N3C2)n1 [Compound 1137, 1,1,1-trifluoro-2-methylpropan-2-yl((2R,6S,7R,9R,13aS,14aR,16aS,Z)-2-((3-(ethyl(methyl)amino)-6-methoxyisoquinolin-1-yl)oxy)-14a-(((1-(fluoromethyl)cyclopropyl)sulfonyl)carbamoyl)-7,9-dimethyl-5,16-dioxo-1,2,3,5,6,7,8,9,10,11,13a,14,14a,15,16,16a-hexadecahydrocyclopropa[e]pyrrolo[1,2-a][1,4]diazacyclopentadecin-6-yl)carbamate]
[1]
  EC50: < 5.46 nM
[2]
  EC50: 4.82 to 103 nM

## CCN(C)c1cc2cc(OC)ccc2c(O[C@@H]2C[C@H]3C(=O)N[C@]4(C(=O)NS(=O)(=O)C5(CF)CC5)C[C@H]4/C=C\CC[C@H](C)C[C@@H](C)[C@H](NC(=O)OC(C)(C)C(C)(F)F)C(=O)N3C2)n1 [Compound 1138, 3,3-difluoro-2-methylbutan-2-yl((2R,6S,7R,9S,13aS,14aR,16aS,Z)-2-((3-(ethyl(methyl)amino)-6-methoxyisoquinolin-1-yl)oxy)-14a-(((1-(fluoromethyl)cyclopropyl)sulfonyl)carbamoyl)-7,9-dimethyl-5,16-dioxo-1,2,3,5,6,7,8,9,10,11,13a,14,14a,15,16,16a-hexadecahydrocyclopropa[e]pyrrolo[1,2-a][1,4]diazacyclopentadecin-6-yl)carbamate]
[1]
  EC50: > 87.4 nM
[2]
  EC50: > 87.4 nM

## CCN(C)c1cc2cc(OC)ccc2c(O[C@@H]2C[C@H]3C(=O)N[C@]4(C(=O)NS(=O)(=O)C5(CF)CC5)C[C@H]4/C=C\CC[C@@H](C)C[C@@H](C)[C@H](NC(=O)OC(C)(C)C(C)(F)F)C(=O)N3C2)n1 [Compound 1139, 3,3-difluoro-2-methylbutan-2-yl((2R,6S,7R,9R,13aS,14aR,16aS,Z)-2-((3-(ethyl(methyl)amino)-6-methoxyisoquinolin-1-yl)oxy)-14a-(((1-(fluoromethyl)cyclopropyl)sulfonyl)carbamoyl)-7,9-dimethyl-5,16-dioxo-1,2,3,5,6,7,8,9,10,11,13a,14,14a,15,16,16a-hexadecahydrocyclopropa[e]pyrrolo[1,2-a][1,4]diazacyclopentadecin-6-yl)carbamate]
[1]
  EC50: 4.82 to 103 nM
[2]
  EC50: 4.82 to 103 nM

## COc1ccc2c(O[C@@H]3C[C@H]4C(=O)N[C@]5(C(=O)NS(=O)(=O)C6(C)CC6)C[C@H]5/C=C\CC[C@H](C)C[C@@H](C)[C@H](NC(=O)OC5(C(F)(F)F)COC5)C(=O)N4C3)nc(OC)cc2c1 [Compound 1140, 3-(trifluoromethyl)oxetan-3-yl ((2R,6S,7R,9S,13aS,14aR,16aS,Z)-2-((3,6-dimethoxyisoquinolin-1-yl)oxy)-7,9-dimethyl-14a-(((1-methylcyclopropyl)sulfonyl)carbamoyl)-5,16-dioxo-1,2,3,5,6,7,8,9,10,11,13a,14,14a,15,16,16a-hexadecahydrocyclopropa[e]pyrrolo[1,2-a][1,4]diazacyclopentadecin-6-yl)carbamate]
[1]
  EC50: < 5.46 nM
[2]
  EC50: < 5.46 nM

## COc1ccc2c(O[C@@H]3C[C@H]4C(=O)N[C@]5(C(=O)NS(=O)(=O)C6(C)CC6)C[C@H]5/C=C\CC[C@@H](C)C[C@@H](C)[C@H](NC(=O)OC5(C(F)(F)F)COC5)C(=O)N4C3)nc(OC)cc2c1 [Compound 1141, 3-(trifluoromethyl)oxetan-3-yl ((2R,6S,7R,9R,13aS,14aR,16aS,Z)-2-((3,6-dimethoxyisoquinolin-1-yl)oxy)-7,9-dimethyl-14a-(((1-methylcyclopropyl)sulfonyl)carbamoyl)-5,16-dioxo-1,2,3,5,6,7,8,9,10,11,13a,14,14a,15,16,16a-hexadecahydrocyclopropa[e]pyrrolo[1,2-a][1,4]diazacyclopentadecin-6-yl)carbamate]
[1]
  EC50: < 5.46 nM
[2]
  EC50: < 5.46 nM

## COc1ccc2c(O[C@@H]3C[C@H]4C(=O)N[C@]5(C(=O)NS(=O)(=O)C6(CF)CC6)C[C@H]5/C=C\CC[C@@H](C)C[C@@H](C)[C@H](NC(=O)OC(C)(C)C(C)(F)F)C(=O)N4C3)nccc2c1 [Compound 1143, 3,3-difluoro-2-methylbutan-2-yl((2R,6S,7R,9R,13aS,14aR,16aS,Z)-14a-(((1-(fluoromethyl)cyclopropyl)sulfonyl)carbamoyl)-2-((6-methoxyisoquinolin-1-yl)oxy)-7,9-dimethyl-5,16-dioxo-1,2,3,5,6,7,8,9,10,11,13a,14,14a,15,16,16a-hexadecahydrocyclopropa[e]pyrrolo[1,2-a][1,4]diazacyclopentadecin-6-yl)carbamate]
[1]
  EC50: < 5.46 nM
[2]
  EC50: 4.82 to 103 nM

## COCCOc1cnc(O[C@@H]2C[C@H]3C(=O)N[C@]4(C(=O)NS(=O)(=O)C5(C)CC5)C[C@H]4/C=C\CC[C@H](C)C[C@@H](C)[C@H](NC(=O)OC(C)(C)C(F)(F)F)C(=O)N3C2)c2ccc(OC)cc12 [Compound 1144, 1,1,1-trifluoro-2-methylpropan-2-yl((2R,6S,7R,9S,13aS,14aR,16aS,Z)-2-((6-methoxy-4-(2-methoxyethoxyl)isoquinolin-1-yl)oxy)-7,9-dimethyl-14a-(((1-methylcyclopropyl)sulfonyl)carbamoyl)-5,16-dioxo-1,2,3,5,6,7,8,9,10,11,13a,14,14a,15,16,16a-hexadecahydrocyclopropa[e]pyrrolo[1,2-a][1,4]diazacyclopentadecin-6-yl)carbamate]
[1]
  EC50: < 5.46 nM
[2]
  EC50: < 5.46 nM

## COCCOc1cnc(O[C@@H]2C[C@H]3C(=O)N[C@]4(C(=O)NS(=O)(=O)C5(C)CC5)C[C@H]4/C=C\CC[C@@H](C)C[C@@H](C)[C@H](NC(=O)OC(C)(C)C(F)(F)F)C(=O)N3C2)c2ccc(OC)cc12 [Compound 1145, 1,1,1-trifluoro-2-methylpropan-2-yl((2R,6S,7R,9R,13aS,14aR,16aS,Z)-2-((6-methoxy-4-(2-methoxyethoxyl)isoquinolin-1-yl)oxy)-7,9-dimethyl-14a-(((1-methylcyclopropyl)sulfonyl)carbamoyl)-5,16-dioxo-1,2,3,5,6,7,8,9,10,11,13a,14,14a,15,16,16a-hexadecahydrocyclopropa[e]pyrrolo[1,2-a][1,4]diazacyclopentadecin-6-yl)carbamate]
[1]
  EC50: < 5.46 nM
[2]
  EC50: < 5.46 nM
